From a melting point compilation (Tetko et al.; mined from patent text by program, amines drawn as free bases though some values may be those of a salt)

For `Cc1cccc(NC(=O)NC(CC(=O)N(CC(=O)OC(C)(C)C)c2ccccc2)c2ccccc2)c1` (racemic), the melting point was 164 °C. `N#Cc1cnc2cc(Br)ccc2c1Nc1ccc(Oc2ccccc2)cc1` showed a melting point of 205 to 207 °C. In the case of `CCCCc1nn(-c2ccc([N+](=O)[O-])cc2C(F)(F)F)c(=O)n1Cc1ccc(-c2ccccc2S(=O)(=O)NC(C)(C)C)cc1`, the melting point is reported as over 78 °C. In the case of `O=C1Nc2ccccc2SC1CCCl` (centres undefined), the melting point is reported as 133 to 134 °C. `CC1C(=O)Oc2cc(N3CCCCC3)c(Cl)cc21` (centres undefined) gave a melting point of 108 to 111 °C. With `ClC1c2ccccc2C=Cc2ccc(Br)cc21` (centres undefined) the melting point was 146 °C. `Cn1ncc(C(=O)NC2CC2)c1Cl` showed a melting point of 105 to 107 °C. Work on `CNC(=S)C1=CC(C)(COC)Oc2ccc([N+](=O)[O-])cc21` (centres undefined) yielded a melting point of 146 to 148 °C. Work on `O=C1CC(c2ccc(Br)cc2)Oc2ccc(Br)cc21` (centres undefined) yielded a melting point of 115 to 117 °C. Work on `Fc1ccc(-c2coc(-c3cn([C@H]4CN5CCC4CC5)nn3)c2)cn1` yielded a melting point of 210 °C. With `CCCN(c1c([O-])[c+](N(CCC)C2CC(C)(C)NC(C)(C)C2)[c+]1[O-])C1CC(C)(C)NC(C)(C)C1` the melting point was 198 to 199 °C. In the case of `CC(C)(O)c1ccc(N2CCN(c3ccncc3)CC2)cc1`, the melting point is reported as 234 to 235 °C. Compound `Clc1cc(Cl)n2c(-c3cccs3)ncc2n1` has a melting point of 152 to 153 °C. Work on `Cn1cnc(CNC(=O)c2ccnc(N3CCN(Cc4ccc(F)cc4)C3=O)c2)c1` yielded a melting point of 174 to 176 °C. Work on `O=S1(=O)CC=C(CBr)C1` yielded a melting point of 76 to 84 °C. For `O=C1NC(=O)C2(C=CC=C3OCC=C32)N1` (centres undefined), the melting point was 245 to 248 °C. Work on `C#CCOc1ccc(NCc2ccc(Cl)nc2)c(C(=O)c2ccc(C(C)C)cc2)c1` yielded a melting point of 96 °C. Work on `CC(C)(C)OC(=O)/C=C/c1ccnc(-c2nc(=O)c3ccccc3s2)c1` yielded a melting point of 196 to 197 °C. With `CC1COc2c(N3Cc4ccc(N)cc4C3)c(F)cc3c(=O)c(C(=O)O)cn1c23` (centres undefined) the melting point was 272 to 276 °C. `CCCCC1(CCCC)CCc2c(OCc3ccccn3)cccc2C1O` (centres undefined) showed a melting point of 106 to 107 °C. `O=C1N=C(NN2CCOCC2)SC1=Cc1cccc(-c2cc(F)c(O)c(C34CC5CC(CC(C5)C3)C4)c2)c1` showed a melting point of 304 to 309 °C. For `O=C1NC(=O)C(Cc2ccc(OCCN3CCc4ccccc43)cc2)S1` (centres undefined), the melting point was 133 to 136 °C. Compound `Nc1ccc(C#CCCN2CC=C(c3ccccc3)CC2)nc1` has a melting point of 136 to 137 °C. `CCN(CC)S(=O)(=O)c1ccc2[nH]c(-c3c(C)c(Cl)cc(C(C)(C)C)c3O)nc2c1` gave a melting point of 277 to 278 °C. Compound `CCOC(=O)C(C(=O)OCC)[C@@H](c1ccccc1)c1c[nH]c2cccc(OC)c12` has a melting point of 134 to 136 °C. With `CCOC1=NS(=O)(=O)c2ccc(N)cc21` the melting point was 154 to 156 °C. `O=S(=O)(c1ccccc1)c1c[nH]c2c(CCN3CCN(Cc4ccccc4)CC3)cccc12` showed a melting point of 80 to 82 °C. In the case of `CC1(c2ccc(F)cc2)OC(C=Cc2ccc(C#N)cc2)=CC1=O` (centres undefined), the melting point is reported as 140 to 142 °C. With `COC(=O)c1c(N)cccc1[N+](=O)[O-]` the melting point was 105 to 107 °C. Work on `CCOC(=O)c1cn(C2CC2)c2c(Br)c(F)c(F)cc2c1=O` yielded a melting point of 164 to 168 °C. `COC(=O)c1cc(Oc2ccc(Cl)c(C)c2)ccc1[N+](=O)[O-]` gave a melting point of 85 to 87 °C. `COC1CCC2C3CCC4CC(=O)C(Cl)CC4(C)C3CCC12C` (centres undefined) gave a melting point of 202 to 210 °C. With `N#Cc1cccc(-c2nc(Nc3ccc(C(=O)O)cc3)sc2-c2ccnnc2)c1` the melting point was over 275 °C. Compound `CCOC(=O)C=c1sc2n(c1=O)Cc1ccccc1N=2` has a melting point of 222 to 224 °C. Work on `O=CNNc1ccc(NC(=S)NC2CCCCC2)cc1` yielded a melting point of 158 to 160 °C. Work on `COc1ccc(-c2nc(-c3ccc(F)cc3)sc2-c2ccc(OC)cc2)cc1` yielded a melting point of 140 to 142 °C. With `CCCCc1oc2ccc([N+](=O)[O-])cc2c1C(=O)c1ccc(OCCCCCN(CCCC)CCCC)cc1` the melting point was 107 °C. Work on `O=C(NOCC(O)CN1CCCCC1)Nc1cccc([N+](=O)[O-])c1` (centres undefined) yielded a melting point of 137 to 139 °C. Work on `CCC1(CC)CC(O)CC(C)(C)N1OC(C)c1ccccc1` (centres undefined) yielded a melting point of 84 to 86 °C.
